Bridge positions count the residues as written; N and C are the ends. Side chains are listed from the residue outwards. Peptide text beside a SMILES is read from it. * marks the point of attachment. Butanoyl(4-(4-I-phenyl)) = O=C(CCCc1ccc(I)cc1)*; PEG2 = NCCOCCOCCC(=O)O
What was measured:
Conditions in all cases: for Emax: read-out: Max Response
[1] = molecular target: nAChR(a4/b2) (Homo sapiens, UniProt P17787+P43681); assay: Safetyscan47 Ion Channel, Opener; format: cell-based
[2] = molecular target: NET (Homo sapiens, UniProt P23975); assay: Safetyscan47 Transporter, Blocker; format: cell-based
[3] = molecular target: CNR1 (Homo sapiens, UniProt P21554); assay: Safetyscan47 GPCR cAMP, Antagonist; format: cell-based
[4] = molecular target: T1, GR (Homo sapiens, UniProt P04150); assay: Safetyscan47 NHR Protein Interaction, Agonist; format: cell-based
T1 sequence (P04150 1-777): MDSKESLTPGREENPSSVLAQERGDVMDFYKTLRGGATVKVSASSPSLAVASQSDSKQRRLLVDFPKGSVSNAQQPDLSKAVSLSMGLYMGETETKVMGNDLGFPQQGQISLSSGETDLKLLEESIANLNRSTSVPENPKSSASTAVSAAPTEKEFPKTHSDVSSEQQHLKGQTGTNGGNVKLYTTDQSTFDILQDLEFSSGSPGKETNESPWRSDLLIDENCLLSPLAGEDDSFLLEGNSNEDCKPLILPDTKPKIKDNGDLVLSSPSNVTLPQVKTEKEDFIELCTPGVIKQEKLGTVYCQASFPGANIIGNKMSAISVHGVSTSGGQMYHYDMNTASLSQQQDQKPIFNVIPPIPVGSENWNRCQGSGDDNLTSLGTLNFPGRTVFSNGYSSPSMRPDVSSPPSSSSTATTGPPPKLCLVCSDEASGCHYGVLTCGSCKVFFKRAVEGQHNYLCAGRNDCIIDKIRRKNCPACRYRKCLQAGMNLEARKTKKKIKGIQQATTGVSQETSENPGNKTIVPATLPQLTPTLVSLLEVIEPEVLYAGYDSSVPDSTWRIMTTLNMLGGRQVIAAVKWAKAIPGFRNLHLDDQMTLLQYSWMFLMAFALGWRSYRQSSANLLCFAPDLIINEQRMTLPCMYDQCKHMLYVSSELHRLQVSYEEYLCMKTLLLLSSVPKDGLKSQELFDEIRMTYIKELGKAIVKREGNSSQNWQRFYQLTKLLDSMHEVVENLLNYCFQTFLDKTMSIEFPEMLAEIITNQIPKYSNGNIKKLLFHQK

[5] = molecular target: T2, CCKAR (Homo sapiens, UniProt P32238); assay: Safetyscan47 GPCR Calcium Flux, Antagonist; format: cell-based
T2 sequence (P32238 1-428): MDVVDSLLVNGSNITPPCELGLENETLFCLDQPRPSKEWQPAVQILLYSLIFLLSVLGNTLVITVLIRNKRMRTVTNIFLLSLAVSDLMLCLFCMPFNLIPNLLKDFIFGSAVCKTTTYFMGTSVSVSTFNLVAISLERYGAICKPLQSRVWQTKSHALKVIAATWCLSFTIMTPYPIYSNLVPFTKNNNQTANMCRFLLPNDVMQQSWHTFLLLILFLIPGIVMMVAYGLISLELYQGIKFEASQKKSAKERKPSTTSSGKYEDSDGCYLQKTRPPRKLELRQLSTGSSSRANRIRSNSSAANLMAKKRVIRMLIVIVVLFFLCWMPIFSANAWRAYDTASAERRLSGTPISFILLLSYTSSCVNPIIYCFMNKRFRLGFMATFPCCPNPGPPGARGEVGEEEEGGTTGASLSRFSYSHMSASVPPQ

[6] = molecular target: T3, ADRA2A (Homo sapiens, UniProt P08913); assay: Safetyscan47 GPCR cAMP, Agonist; format: cell-based
T3 sequence (P08913 1-465): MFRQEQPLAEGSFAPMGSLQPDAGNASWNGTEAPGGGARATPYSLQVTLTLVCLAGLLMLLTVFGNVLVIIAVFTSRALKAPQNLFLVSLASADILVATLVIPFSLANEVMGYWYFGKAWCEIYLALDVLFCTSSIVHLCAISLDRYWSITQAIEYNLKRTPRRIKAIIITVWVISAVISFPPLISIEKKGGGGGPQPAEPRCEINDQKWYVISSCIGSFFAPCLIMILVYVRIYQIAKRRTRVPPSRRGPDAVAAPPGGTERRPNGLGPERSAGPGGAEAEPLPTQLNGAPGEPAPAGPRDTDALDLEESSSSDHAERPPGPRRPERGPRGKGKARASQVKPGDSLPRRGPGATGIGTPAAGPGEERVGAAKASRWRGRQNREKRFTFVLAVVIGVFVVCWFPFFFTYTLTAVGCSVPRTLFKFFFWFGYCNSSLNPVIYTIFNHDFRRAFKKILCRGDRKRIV

[7] = molecular target: KvLQT1/minK (Homo sapiens, UniProt P15382+P51787); assay: Safetyscan47 Ion Channel, Blocker; format: cell-based
[8] = molecular target: T4, MAOA (Homo sapiens, UniProt P21397); assay: Safetyscan47 Non-Kinase Enzymes Enzymatic, Inhibitor; format: biochemical
T4 sequence (P21397 1-527): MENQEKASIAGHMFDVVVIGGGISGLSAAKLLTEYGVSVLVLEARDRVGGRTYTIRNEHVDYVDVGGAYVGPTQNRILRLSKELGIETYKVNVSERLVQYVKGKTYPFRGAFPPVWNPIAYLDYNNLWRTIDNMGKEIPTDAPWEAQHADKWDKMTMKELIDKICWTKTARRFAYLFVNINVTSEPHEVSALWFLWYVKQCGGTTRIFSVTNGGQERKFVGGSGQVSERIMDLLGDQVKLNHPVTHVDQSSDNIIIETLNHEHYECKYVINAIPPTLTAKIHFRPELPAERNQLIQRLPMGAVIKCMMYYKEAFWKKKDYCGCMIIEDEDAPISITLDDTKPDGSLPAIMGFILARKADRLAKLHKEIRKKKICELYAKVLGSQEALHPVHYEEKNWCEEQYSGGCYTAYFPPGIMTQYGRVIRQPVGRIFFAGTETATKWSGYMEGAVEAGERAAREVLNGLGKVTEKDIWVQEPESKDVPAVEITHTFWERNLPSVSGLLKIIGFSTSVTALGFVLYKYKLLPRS

[9] = molecular target: NMDAR (1A/2B) (Homo sapiens, UniProt Q05586+Q13224); assay: Safetyscan47 Ion Channel, Blocker; format: cell-based
[10] = molecular target: T1, GR; assay: Safetyscan47 NHR Protein Interaction, Antagonist; format: cell-based

Chain of NMDAR (1A/2B) (Q13224 27-1484, other chains not shown): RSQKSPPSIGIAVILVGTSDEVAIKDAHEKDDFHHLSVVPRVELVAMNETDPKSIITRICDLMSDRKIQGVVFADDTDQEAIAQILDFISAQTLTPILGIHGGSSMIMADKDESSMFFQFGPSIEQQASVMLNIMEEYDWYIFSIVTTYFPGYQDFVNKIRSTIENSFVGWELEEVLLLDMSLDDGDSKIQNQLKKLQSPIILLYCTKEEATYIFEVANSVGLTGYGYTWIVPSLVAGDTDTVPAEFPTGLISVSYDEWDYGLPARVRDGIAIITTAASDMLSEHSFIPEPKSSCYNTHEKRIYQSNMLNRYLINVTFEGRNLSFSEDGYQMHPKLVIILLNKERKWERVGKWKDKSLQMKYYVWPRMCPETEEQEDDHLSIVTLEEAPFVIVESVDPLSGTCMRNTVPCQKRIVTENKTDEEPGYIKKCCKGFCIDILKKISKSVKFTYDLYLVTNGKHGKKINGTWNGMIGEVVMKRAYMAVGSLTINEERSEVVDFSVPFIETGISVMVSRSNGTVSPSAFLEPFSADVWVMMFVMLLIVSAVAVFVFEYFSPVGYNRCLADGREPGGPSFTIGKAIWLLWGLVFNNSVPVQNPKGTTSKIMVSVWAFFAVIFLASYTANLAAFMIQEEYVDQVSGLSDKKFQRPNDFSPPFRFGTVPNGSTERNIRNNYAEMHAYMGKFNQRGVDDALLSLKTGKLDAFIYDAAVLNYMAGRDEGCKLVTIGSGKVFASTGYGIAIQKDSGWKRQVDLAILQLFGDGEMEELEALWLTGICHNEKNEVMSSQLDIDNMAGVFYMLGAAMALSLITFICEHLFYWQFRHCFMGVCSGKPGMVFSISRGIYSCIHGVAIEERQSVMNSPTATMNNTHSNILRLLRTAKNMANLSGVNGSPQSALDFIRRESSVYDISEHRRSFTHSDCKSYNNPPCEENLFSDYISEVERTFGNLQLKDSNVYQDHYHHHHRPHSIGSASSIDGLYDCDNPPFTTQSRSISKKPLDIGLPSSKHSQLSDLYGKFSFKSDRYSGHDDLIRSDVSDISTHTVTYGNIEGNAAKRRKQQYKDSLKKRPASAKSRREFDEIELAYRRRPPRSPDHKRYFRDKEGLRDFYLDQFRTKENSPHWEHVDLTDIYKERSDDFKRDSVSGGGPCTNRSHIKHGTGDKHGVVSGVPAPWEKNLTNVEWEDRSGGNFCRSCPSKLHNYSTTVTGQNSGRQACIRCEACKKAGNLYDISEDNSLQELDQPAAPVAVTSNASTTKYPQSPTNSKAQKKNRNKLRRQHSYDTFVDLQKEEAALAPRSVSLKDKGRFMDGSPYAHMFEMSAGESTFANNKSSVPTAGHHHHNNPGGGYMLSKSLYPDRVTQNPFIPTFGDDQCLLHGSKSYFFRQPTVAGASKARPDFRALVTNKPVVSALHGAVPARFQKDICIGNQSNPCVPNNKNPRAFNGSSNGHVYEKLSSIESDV
Chain of nAChR(a4/b2) (P43681 29-627 limits assumed): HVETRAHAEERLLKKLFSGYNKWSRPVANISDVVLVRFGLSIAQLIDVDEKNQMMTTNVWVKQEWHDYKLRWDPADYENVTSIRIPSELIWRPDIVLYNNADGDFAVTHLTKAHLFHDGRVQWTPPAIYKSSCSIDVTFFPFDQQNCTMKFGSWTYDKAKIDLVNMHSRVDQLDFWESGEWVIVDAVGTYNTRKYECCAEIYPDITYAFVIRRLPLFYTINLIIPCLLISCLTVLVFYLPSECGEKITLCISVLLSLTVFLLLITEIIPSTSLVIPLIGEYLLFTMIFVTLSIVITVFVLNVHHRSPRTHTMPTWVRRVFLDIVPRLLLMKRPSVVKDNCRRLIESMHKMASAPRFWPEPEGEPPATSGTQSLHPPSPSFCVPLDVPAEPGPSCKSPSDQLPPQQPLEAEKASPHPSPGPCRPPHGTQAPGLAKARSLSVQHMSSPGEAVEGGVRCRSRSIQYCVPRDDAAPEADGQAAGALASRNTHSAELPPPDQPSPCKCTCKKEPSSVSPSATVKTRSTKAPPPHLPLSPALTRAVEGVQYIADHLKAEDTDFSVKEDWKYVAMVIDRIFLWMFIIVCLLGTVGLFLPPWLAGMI
Chain of nAChR(a4/b2) (P17787 26-502): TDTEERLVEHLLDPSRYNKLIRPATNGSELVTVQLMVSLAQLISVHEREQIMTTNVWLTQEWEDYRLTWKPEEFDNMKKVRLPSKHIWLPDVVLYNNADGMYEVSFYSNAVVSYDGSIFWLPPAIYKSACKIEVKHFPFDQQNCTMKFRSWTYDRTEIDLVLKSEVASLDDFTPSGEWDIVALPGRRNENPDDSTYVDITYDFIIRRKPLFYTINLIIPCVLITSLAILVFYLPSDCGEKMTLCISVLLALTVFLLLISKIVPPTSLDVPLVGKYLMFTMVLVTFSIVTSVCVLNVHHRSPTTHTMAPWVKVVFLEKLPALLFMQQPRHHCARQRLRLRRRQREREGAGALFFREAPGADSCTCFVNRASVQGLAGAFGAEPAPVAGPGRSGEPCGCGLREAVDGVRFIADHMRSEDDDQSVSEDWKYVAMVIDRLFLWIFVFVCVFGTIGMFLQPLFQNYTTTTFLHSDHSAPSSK
Chain of NET (P23975 whole entry): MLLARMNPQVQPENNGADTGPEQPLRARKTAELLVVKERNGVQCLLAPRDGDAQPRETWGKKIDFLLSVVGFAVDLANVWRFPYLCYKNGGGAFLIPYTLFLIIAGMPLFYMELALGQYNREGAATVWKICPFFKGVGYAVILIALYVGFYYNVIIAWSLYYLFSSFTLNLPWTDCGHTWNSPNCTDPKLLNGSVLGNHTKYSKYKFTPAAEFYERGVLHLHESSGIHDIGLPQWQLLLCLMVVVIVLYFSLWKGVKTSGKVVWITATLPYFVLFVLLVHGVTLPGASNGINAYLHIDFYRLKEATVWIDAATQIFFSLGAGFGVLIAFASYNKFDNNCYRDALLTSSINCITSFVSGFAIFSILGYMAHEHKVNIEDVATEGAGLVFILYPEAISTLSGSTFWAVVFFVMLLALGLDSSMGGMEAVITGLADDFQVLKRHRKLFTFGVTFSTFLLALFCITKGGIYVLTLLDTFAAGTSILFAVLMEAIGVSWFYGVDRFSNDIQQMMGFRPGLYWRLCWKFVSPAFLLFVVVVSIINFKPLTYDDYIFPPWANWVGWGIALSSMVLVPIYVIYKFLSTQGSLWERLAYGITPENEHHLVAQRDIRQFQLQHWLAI
Chain of CNR1 (P21554 whole entry): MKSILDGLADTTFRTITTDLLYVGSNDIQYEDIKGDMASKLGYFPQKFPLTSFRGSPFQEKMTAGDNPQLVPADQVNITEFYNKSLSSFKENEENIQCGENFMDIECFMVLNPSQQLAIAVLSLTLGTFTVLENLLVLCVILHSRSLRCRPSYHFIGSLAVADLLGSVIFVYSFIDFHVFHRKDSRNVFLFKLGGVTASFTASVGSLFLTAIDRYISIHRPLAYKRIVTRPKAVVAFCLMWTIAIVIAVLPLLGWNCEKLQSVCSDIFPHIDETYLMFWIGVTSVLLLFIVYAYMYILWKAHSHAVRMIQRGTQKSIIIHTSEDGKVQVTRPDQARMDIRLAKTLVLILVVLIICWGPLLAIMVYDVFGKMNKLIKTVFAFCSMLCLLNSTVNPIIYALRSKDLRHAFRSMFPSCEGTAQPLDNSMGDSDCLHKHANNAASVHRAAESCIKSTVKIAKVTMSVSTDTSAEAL
Chain of KvLQT1/minK (P51787 whole entry): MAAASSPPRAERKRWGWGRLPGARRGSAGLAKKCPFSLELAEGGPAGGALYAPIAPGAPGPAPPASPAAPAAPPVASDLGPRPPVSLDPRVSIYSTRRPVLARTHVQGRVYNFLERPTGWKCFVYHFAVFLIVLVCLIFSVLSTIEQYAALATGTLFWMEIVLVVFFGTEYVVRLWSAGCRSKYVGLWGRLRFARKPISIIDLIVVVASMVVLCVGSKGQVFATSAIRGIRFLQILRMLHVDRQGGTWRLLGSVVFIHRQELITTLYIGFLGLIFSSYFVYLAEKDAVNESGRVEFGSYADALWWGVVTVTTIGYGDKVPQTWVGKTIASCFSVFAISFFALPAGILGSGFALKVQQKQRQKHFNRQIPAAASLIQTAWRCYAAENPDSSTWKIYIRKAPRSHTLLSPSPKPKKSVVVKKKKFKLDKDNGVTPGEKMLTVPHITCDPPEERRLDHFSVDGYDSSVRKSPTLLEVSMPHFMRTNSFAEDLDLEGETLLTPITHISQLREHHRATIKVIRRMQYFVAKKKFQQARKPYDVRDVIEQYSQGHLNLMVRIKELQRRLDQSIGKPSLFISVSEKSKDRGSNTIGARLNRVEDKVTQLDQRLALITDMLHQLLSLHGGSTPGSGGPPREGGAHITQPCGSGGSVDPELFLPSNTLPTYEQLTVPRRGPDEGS

Compound	EC50 [1]	Emax [1]	IC50 [2]	Emax [2]	IC50 [3]	Emax [3]	EC50 [4]	Emax [4]	IC50 [5]	Emax [5]	EC50 [6]	Emax [6]	IC50 [7]	Emax [7]	IC50 [8]	Emax [8]	IC50 [9]	Emax [9]	IC50 [10]	Emax [10]
CC[C@H](C)[C@H](NC(=O)[C@H](CC(C)C)NC(=O)[C@H](CC(=O)O)NC(=O)CNC(=O)[C@H](CCCNC(=N)N)NC(=O)[C@@H](NC(=O)[C@H](Cc1ccccc1)NC(=O)[C@H](Cc1ccc(O)cc1)NC(=O)[C@@H]1CCC(=O)NCC(=O)NCC(=O)N[C@@H](CCCNC(=N)N)C(=O)NCC(=O)N[C@@H](Cc2c[nH]cn2)C(=O)N[C@@H](C(C)C)C(=O)N2CCC[C@H]2C(=O)N1)C(C)C)C(=O)N[C@@H](CO)C(=O)N[C@@H](Cc1ccccc1)C(=O)N[C@@H](Cc1ccc(O)cc1)C(=O)N[C@@H](CCCCN)C(=O)O [lassotide 36] (GGRGHVPEYFVRGDLISFYK-OH; lactam N-8)	> 45 µM	11%	> 45 µM	0.35%	> 45 µM	9.79%	> 45 µM	0%	> 45 µM	3.61%	> 45 µM	0.3%	> 45 µM	1.8%	> 45 µM	10.8%	> 45 µM	0%	> 45 µM	0%
CC[C@H](C)[C@H](NC(=O)[C@H](CC(C)C)NC(=O)[C@H](CC(=O)O)NC(=O)CNC(=O)[C@H](CCCNC(=N)N)NC(=O)[C@@H](NC(=O)[C@H](Cc1ccccc1)NC(=O)[C@H](Cc1ccc(O)cc1)NC(=O)[C@@H]1CCC(=O)NCC(=O)NCC(=O)N[C@@H](CCCNC(=N)N)C(=O)NCC(=O)N[C@@H](Cc2c[nH]cn2)C(=O)N[C@@H](C(C)C)C(=O)N2CCC[C@H]2C(=O)N1)C(C)C)C(=O)N[C@@H](CO)C(=O)N[C@@H](Cc1ccccc1)C(=O)N[C@@H](Cc1ccc(O)cc1)C(=O)N[C@@H](CCCCNC(=O)CCOCCOCCNC(=O)CCCc1ccc(I)cc1)C(=O)O [lassotide 47] (GGRGHVPEYFVRGDLISFYK([PEG2-Butanoyl(4-(4-I-phenyl))])-OH; lactam N-8)	> 45 µM	0%	> 45 µM	0%	> 45 µM	0%	> 45 µM	0%	> 45 µM	3.35%	> 45 µM	30.2%	> 45 µM	24.8%	> 45 µM	0%	> 45 µM	0%	> 45 µM	0%
